These results are taken from patent US3940386A, “Substituted cinnamoyl-piperazine-pyridyl compound” (Cermol S.A., priority 1973, dated 1976).

Data set [1] deals with mice. Description: Toxicity (mice), I.G. (Table III). Format: in vivo. From the text: (§1) The products were used in the form of the trihydrochloride, except the product under the letter "b" which was used in the form of the dihydrochloride.
A short description of data set [2]: Toxicity (mice), I.G. (Table III). Format: in vivo. The following applies: mouse, in vivo, po.
Description: as §1

The nature of data set [3]: Set of methods and tests of the activity of the products (vasodilatatory, spasmolytic, antihistaminic, cholinolytic, sedative, depressant, neurotoxic). From the text: The set of methods and tests effected enabled us to appreciate the activity of the products according to the invention. It clearly follows therefrom that the products wherein: […]
In another data set the test system is cerebral circulation. Description: Cerebral circulation: PO2 of the venous cerebral blood (sinus sagittalis) in cats anaesthetized with Nembutal. In kind it is in vivo. The following applies: intravenous perfusion. The method, then:
In the course of a series of experiments on cats anaesthetized with Nembutal, the cynetics of PO2 of the venous cerebral blood were measured (from the sinus sagittalis) during an intravenous perfusion of this product.

In another data set the test system is albino rats. Kind of data set: Acute toxicity, oral, albino rats (Table II). In kind it is in vivo. The following applies: aqueous solution. The procedure:
(§2) Tests were performed on mice and albino rats, the active compound being administered orally in the form of an aqueous solution.

Data set [4] can be described thus: Acute toxicity, oral, albino rats (Table II). In kind it is in vivo. The following applies: rat, in vivo, aqueous solution. The method, then: as §2
Data set [5] relates to mice. Kind of data set: Acute toxicity, oral, mice (Table II). Format: in vivo. The conditions noted are these: aqueous solution. The procedure:
as §2

The nature of data set [6]: Acute toxicity, oral, mice (Table II). In kind it is in vivo. The following applies: mouse, in vivo, aqueous solution. The procedure: as §2
Data set [7] deals with mice. Kind of data set: Acute toxicity on mice, orally and intraperitoneally (Table I). Format: in vivo. The conditions noted are these: for LD0: suspended in gum syrup or labrafil. The method, then:
(§3) Tests were performed on mice, orally (P.O.) and intraperitoneally (I.P.), the active compounds being suspended in gum syrup or labrafil.

Assay in data set [8]: as above
In kind it is in vivo. The conditions noted are these: mouse, in vivo, suspended in gum syrup or labrafil. The procedure: as §3

Counter-ions that a name gives are not always drawn. Some results are limits rather than exact numbers.

Broadly, the LD50 is the dose expected to kill half of the subjects tested.

With `Fc1ccc(C(c2ccccn2)N2CCN(CC=Cc3ccccc3)CC2)cc1` (stereo not drawn) [1(2'-pyridyl-4"-fluorophenyl)-methyl-4-cinnamyl piperazine], in the data set with mice [1] (mouse, in vivo), the LD0 was determined as 300 mg/kg. Also, in data set [2], the median lethal dose (LD50) came out at 400 mg/kg. For the same molecule, in data set [3], the antihistaminic activity result is listed as “well-defined”, the depressant properties entry is “do not show”, the neurotoxic properties result is given as “do not show” and the spasmolytic activity result is recorded as “well-defined”. In addition, the vasodilatatory activity entry in data set [3] is reported as “well-defined”.

Molecule `Clc1ccc(C(c2ccccn2)N2CCN(CC=Cc3ccccc3)CC2)c(Cl)c1` (stereo not drawn) [1-(2'-pyridyl-2",4"-dichlorophenyl)-methyl-4-cinnamyl piperazine trihydrochloride] registered an LD0 in the data set on mice [1] (mouse, in vivo) of 400 mg/kg. For the same molecule, the LD50 in data set [2] was found to be 600 mg/kg. In [3], the antihistaminic activity entry is recorded as “well-defined”, the depressant properties entry is “do not show”, the neurotoxic properties result is on record as “do not show” and the spasmolytic activity entry is given as “well-defined”. The vasodilatatory activity result in [3] is “well-defined”.

Molecule `Clc1ccc(C(c2ccccn2)N2CCN(CC=Cc3ccccc3)CC2)cc1` (stereo not drawn) [1-(2'-pyridyl-4"-chlorophenyl)-methyl-4-cinnamyl piperazine] yielded an LD0 in the data set on mice [1] (mouse, in vivo) of 400 mg/kg. This molecule also showed a 50% lethal dose (LD50) in data set [2] of 1180 mg/kg. Also, in data set [3], the antihistaminic activity entry was “well-defined”, the depressant properties entry was “do not show”, the neurotoxic properties result was “do not show” and the spasmolytic activity entry is reported as “well-defined”. The vasodilatatory activity result in [3] is recorded as “well-defined”. The “activity with respect to cerebral circulation” value in the data set with cerebral circulation was “important activity”.

In the data set on mice [1] (mice, I.G.), `CC(c1ccc(Cl)cc1)(c1ccccn1)N1CCN(CC=Cc2ccccc2)CC1` (stereo not drawn) [1-(2'-pyridyl-4"-chlorophenylmethyl)-methyl-4-cinnamyl piperazine] came in with an LD0 of 400 mg/kg. Besides, the LD50 in [2] (mice, I.G.) was determined as 500 mg/kg. For the same molecule, the sedative activity result in [3] was “presents a sedative activity”.

For the molecule `C(=Cc1ccccc1)CN1CCN(C(c2ccccc2)c2ccccn2)CC1` (stereo not drawn) [1-(2'-pyridylphenyl)-methyl-4-cinnamyl piperazine], the LD0 in the data set with albino rats amounted to 200 mg/kg; with mice [5] it was 175 mg/kg. Besides, the LD50 in [4] was found to be 1200 mg/kg; in [6] it was 295 mg/kg.

In the case of `C(=Cc1ccccc1)CN1CCN(C(c2ccccc2)C2CC2)CC1` (stereo not drawn) [--CH2 --, 1-(cyclopropylphenyl)-methyl-4-cinnamyl piperazine], in the data set on mice [7] (P.O.), the “LD0” value is on record as about 300 mg/kg. In [8] (po, P.O.), this molecule had a median lethal dose (LD50) of 570 mg/kg.

For `O=C(C=Cc1ccccc1)N1CCN(C(c2ccccc2)C2CC2)CC1` (stereo not drawn) [C = O, 1-(cyclopropylphenyl)-methyl-4-cinnamoyl piperazine], the results for the “LD0” value in the data set on mice [7] (I.P.) and in the data set on mice [7] (P.O.) were over 400 mg/kg and over 1000 mg/kg, respectively. Further, the toxicity result with mice [7] (in words) was “very low toxicity”. The LD50 is 1480 mg/kg in [8] (ip, I.P.) and over 4000 mg/kg in data set [8] (po, P.O.).
